The values that follow come from patent US20090068642A1, “Composition and pharmacology of novel alpha6-containing nicotinic acetylcholine receptors” (priority 2003, published 2009).

The target of assay [1] is T1, α6β3β4α5 nAChR (Homo sapiens, UniProt P30926+Q15825).
T1 construct: expressed in transfected cells; host or cells: SH-EP1 human epithelial cells
The assay is described as follows: [3H]-epibatidine binding to SH-EP1 α6β3β4α5 cell membranes (saturation and competition). The method, then:
Preparation of Cell Membranes for Receptor Binding. […] Combined homogenate (18 mL) was centrifuged at 40,000×g for 20 min (4° C.). The pellet was resuspended in 12 mL of ice-cold PBS and centrifuged again. The final pellet was resuspended in 10 mL of PBS.
[^3H]-Epibatidine Binding. For the saturation binding assay, 0.1 to 2.0 nM [^3H]-EPI (final concentrations; PerkinElmer Life Sciences, 56.2 Ci/mmol) was used to probe α6-comprising binding sites on the cell membranes. Competition binding assay was performed using 0.5 nM [^3H]-EPI (final concentration).
Each well contained 50 μL of test compound at the desired concentration, 50 μL of 4×[^3H]-EPI stock solution and 100 μL of membrane suspension and was performed in triplicate, at minimum. Samples were incubated for 2 hr at room temperature with gentle agitation. Samples defining total binding included buffer instead of test compound.
For 48-well plates, binding was terminated by immediate filtration onto GF/B filters (presoaked in 0.3% PEI) using a 48-sample, semi-auto harvester (Brandel, Gaithersburg, Md.), followed by washing 3 times with ice-cold buffer. Filters were transferred into scintillation vials filled with 3 mL of cocktail. Radioactivity was measured after 8-12 hr using a liquid scintillation analyzer (model Tri-Carb 2200CA, PerkinElmer Life Sciences Inc., Boston, Mass.). Data were expressed as disintegrations per minute (DPMs) and were converted to an absolute amount (fmoles) of bound [^3H]-EPI per mg of protein, or as a percent of control [^3H]-EPI binding (total—nonspecific).
For 96-well plates, incubation was terminated by dilution with ice-cold PBS and immediate filtration onto GF/B filter plate (presoaked in 0.3% PEI) using a 96-sample, semi-auto harvester (Brandel, Gaithersburg, Md.). After washing 3 times with ˜350 μl of ice-cold buffer, the filter plate was dried for 60 min in an oven at 49° C., bottom-sealed and each well filled with 40 μl of cocktail. […] Data were expressed as counts per minute (CPMs) and were converted to percent of control [^3H]-EPI binding (total—nonspecific).
Pseudo Hill slope (nH) was determined by fitting data to a sigmoidal dose-response equation (variable slope): % binding=Bottom+(Top−Bottom)/[1+10^(logIC50-X)·n], where X is the logarithm of inhibitor concentration and n is the slope.
A Scatchard analysis was also done for illustrative purposes, but not to determine specific binding parameters.

Assay [2] has as its system DA release. As to conditions: Bencherif, et al., 1998; cited from earlier work.
In assay [3] the target is T2, α4β2 nAChR (Rattus norvegicus, UniProt P09483+P12390).
T2 construct: Rat Brain; from tissue
T2 sequence (P12390 25-500): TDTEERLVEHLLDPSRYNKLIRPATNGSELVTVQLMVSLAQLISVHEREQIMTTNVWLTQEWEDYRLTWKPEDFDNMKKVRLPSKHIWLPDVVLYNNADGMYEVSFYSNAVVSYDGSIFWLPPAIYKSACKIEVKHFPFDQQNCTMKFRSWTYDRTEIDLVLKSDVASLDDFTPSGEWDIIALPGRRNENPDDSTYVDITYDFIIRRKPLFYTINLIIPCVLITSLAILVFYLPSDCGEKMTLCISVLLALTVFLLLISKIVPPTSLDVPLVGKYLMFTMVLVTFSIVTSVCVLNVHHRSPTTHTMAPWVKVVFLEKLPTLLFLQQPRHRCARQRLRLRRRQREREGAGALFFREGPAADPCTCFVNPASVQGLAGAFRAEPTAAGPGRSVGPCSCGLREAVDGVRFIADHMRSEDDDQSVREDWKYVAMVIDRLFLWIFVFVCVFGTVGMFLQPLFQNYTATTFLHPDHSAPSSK
T2 sequence (P09483 31-630): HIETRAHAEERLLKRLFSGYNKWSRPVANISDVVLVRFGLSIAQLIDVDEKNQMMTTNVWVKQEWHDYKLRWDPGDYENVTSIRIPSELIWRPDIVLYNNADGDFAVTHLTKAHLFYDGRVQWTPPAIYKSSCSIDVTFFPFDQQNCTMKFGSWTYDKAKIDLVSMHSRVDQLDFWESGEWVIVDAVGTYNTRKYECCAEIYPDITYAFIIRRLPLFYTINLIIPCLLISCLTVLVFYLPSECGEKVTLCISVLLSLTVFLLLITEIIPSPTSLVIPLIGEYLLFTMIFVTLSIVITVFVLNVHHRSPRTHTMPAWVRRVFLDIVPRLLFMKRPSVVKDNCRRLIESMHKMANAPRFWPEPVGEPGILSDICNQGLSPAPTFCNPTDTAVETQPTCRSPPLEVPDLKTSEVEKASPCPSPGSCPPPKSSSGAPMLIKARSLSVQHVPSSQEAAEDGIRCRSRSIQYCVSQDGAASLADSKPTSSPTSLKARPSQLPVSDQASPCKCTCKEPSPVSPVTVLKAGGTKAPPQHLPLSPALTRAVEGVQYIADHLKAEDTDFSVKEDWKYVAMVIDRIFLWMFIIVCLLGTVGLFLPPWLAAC
Briefly: biochemical. The class given is binding.

Assay [4] has as its target α6α4β2β3 nAChR (Homo sapiens, UniProt P17787+P43681+Q15825, P452S). The assay is described as follows: 86Rb+ efflux assay, SH-EP1 α6α4β2β3 cells compared with α4β2 cells. The class given is cell-based.
Method: (§1) ^86Rb^+-flux Assay. […] After cells had adhered (generally overnight, but no sooner than 4 hr later), medium was removed and replaced with 250 μl per well of complete medium supplemented with ˜300,000 cpm of ^86Rb^+ (NEN; counted at 40% efficiency using Cerenkov counting and the Packard TriCarb 1900 Liquid Scintillation Analyzer).
(§2) Briefly, after aspiration of the bulk of ^86Rb^+ loading medium from each well of the “cell plate,” each well containing cells was rinsed three times with 2 ml of fresh ^86 Rb^+ efflux buffer (130 mM NaCl, 5.4 mM KCl, 2 mM CaCl2, 5 mM glucose, 50 mM HEPES, pH 7.4) to remove extracellular ^86Rb^+. Following removal of residual rinse buffer by aspiration, the flip-plate technique was used again to simultaneously introduce fresh efflux buffer containing drugs of choice at indicated final concentrations from a 24-well “efflux/drug plate” into the wells of the cell plate. […]
(§3) Intrinsic agonist activity of test drugs was ascertained in samples containing that drug only at different concentrations and was normalized, after subtraction of non-specific efflux, to specific efflux assessed using carbamylcholine and efflux-buffer-only controls. Antagonist activity was determined for test drugs at different concentrations in the presence of 1 mM carbamylcholine and was normalized, after subtraction of non-specific efflux, to specific efflux ascertained using carbamylcholine and efflux buffer-only controls. ^86Rb^+ in both cell plates and efflux/drug plates was periodically determined to ensure material balance (i.e., that the sum of ^86Rb^+ released into the efflux/drug plate and ^86Rb^+ remaining in the cell plate were the same for each well) and to determine efficiency of ^86Rb^+ loading (the percentage of applied ^86Rb^+ actually loaded into cells).
(§4) In some cases, biphasic dose-ion flux response curves were evident and were fit to a two-phase Hill equation from which EC50 and Hill coefficients for the rising, agonist phase, and IC50 and Hill coefficients for the falling, self-inhibitory phase could be determined (Prism).
Assay [5] deals with T3, α7 nAChR (Rattus norvegicus, UniProt Q05941).
T3 construct: Rat brain; from tissue
T3 sequence (Q05941 23-502): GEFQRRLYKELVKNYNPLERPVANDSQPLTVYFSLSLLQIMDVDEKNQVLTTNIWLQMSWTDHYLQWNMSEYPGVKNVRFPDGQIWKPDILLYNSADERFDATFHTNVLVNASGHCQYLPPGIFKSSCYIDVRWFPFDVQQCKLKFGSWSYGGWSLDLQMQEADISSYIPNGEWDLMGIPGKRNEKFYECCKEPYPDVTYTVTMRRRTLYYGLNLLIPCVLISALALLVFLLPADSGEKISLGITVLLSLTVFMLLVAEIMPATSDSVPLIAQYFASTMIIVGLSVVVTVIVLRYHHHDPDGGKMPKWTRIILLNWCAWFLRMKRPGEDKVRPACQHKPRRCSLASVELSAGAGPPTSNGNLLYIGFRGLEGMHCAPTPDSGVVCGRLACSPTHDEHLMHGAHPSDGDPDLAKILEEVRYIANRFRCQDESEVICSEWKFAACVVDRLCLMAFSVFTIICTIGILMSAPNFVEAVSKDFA
Briefly: biochemical. As to conditions: read-out: Ki α7 [3H]-MLA Binding.

The target of assay [6] is T1, α6β3β4α5 nAChR. Briefly: 86Rb+ efflux assay, SH-EP1 α6β3β4α5 cells. The class given is cell-based. To be noted: SH-EP1 cells expressing α6β3β4α5-nAChR, FIG. 2. The method, then: ^86Rb^+-flux Assay. Cells were harvested at confluence from 100-mm plates by mild trypsinization (Irvine Scientific, Santa Ana, Calif.) before being resuspended in complete medium and evenly seeded at a density of one confluent 100-mm plate per 24-well plate (Falcon; ˜100-125 μg of total cell protein per well in a 500 μl volume). After cells had adhered (generally overnight, but no sooner than 4 hr later), medium was removed and replaced with 250 μl per well of complete medium supplemented with ˜300,000 cpm of ^86Rb^+ (NEN; counted at 40% efficiency using Cerenkov counting and the Packard TriCarb 1900 Liquid Scintillation Analyzer).
After at least 4 hr and typically overnight, ^86Rb^+ efflux was measured using the “flip-plate” technique (Lukas et al., 2002). […]
For each experiment, normalization and quality control measurements were made of total ^86Rb^+ efflux in samples containing a fully efficacious dose of 1 mM carbamylcholine and of non-specific ^86Rb^+ efflux measured using either samples containing 1 mM carbamylcholine plus 100 μM mecamylamine, which gave full block of agonist-induced or spontaneous, nAChR-mediated ion flux, or samples containing efflux buffer alone to assess any contributions due to spontaneous nAChR-mediated ion flux. […] Specific ^86Rb^+ efflux was determined in absolute terms and as a percentage of loaded ^86Rb^+. […]

Assay [7] has as its target T2, α4β2 nAChR. To be noted: Table 1; from Briggs et al, 1997; read-out: Ki α4β2 [3H]-NIC Binding; cited from earlier work.
The target of assay [8] is T3, α7 nAChR. To be noted: Table 1; from Briggs et al, 1997; read-out: Ki α7 [3H]-MLA Binding; cited from earlier work.
The target in assay [9] is α6α4β2β3 nAChR (Homo sapiens, UniProt P17787+P43681+Q15825). Briefly: 86Rb+ efflux assay, SH-EP1 α6α4β2β3 cells compared with α4β2 cells. The class given is cell-based.
Method: as §1, §2, §3, §4
The mark [10] stands for this setting: SH-EP1 α6β3β4α5 membranes, read-out: Ki in competition with [3H]-EPI (rank order of potency).
[11] abbreviates: Ki in competition with [3H]-EPI (rank order of potency).
Setting [12] is: read-out: Ki α6β3β4α5 [3H]-EPI Binding.
[13] abbreviates: read-out: Ki α4β2 [3H]-NIC Binding.
Setting [14] is: SH-EP1 cells, Table 1, read-out: Ki α6β3β4α5 [3H]-EPI Binding.

“And” between values parts separate entries of the source, which are not always exact repeats. Equal values may be shown once. “Also recorded” adds a separate entry of the source. Read-outs that look alike come from different tables or passages of the source.

T1 sequence (Q15825 26-494): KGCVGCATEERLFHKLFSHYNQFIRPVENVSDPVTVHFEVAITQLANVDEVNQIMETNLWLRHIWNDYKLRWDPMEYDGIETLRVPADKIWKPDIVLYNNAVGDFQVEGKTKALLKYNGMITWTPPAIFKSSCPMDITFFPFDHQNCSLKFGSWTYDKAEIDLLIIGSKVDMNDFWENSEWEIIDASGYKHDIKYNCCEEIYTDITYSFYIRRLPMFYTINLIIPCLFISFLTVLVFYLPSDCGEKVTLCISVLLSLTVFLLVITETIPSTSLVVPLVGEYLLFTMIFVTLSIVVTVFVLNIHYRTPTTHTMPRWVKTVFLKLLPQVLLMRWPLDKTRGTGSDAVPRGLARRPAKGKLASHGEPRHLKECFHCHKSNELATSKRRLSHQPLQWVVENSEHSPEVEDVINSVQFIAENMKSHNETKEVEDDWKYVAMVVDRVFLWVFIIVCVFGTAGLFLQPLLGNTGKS
T1 sequence (Q05901 25-458 partner limits assumed): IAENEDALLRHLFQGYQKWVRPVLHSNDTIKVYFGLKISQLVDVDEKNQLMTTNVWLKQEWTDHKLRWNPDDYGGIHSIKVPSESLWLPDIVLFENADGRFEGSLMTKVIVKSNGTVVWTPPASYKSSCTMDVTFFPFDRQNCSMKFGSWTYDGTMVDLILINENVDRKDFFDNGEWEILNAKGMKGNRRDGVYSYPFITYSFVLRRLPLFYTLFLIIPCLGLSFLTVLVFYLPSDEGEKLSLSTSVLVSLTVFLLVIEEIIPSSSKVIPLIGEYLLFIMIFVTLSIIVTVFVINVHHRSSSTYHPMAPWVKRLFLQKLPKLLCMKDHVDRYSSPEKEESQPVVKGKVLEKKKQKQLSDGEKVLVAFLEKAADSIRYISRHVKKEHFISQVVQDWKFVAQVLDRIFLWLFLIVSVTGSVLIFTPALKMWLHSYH
T1 sequence (P30926 22-498): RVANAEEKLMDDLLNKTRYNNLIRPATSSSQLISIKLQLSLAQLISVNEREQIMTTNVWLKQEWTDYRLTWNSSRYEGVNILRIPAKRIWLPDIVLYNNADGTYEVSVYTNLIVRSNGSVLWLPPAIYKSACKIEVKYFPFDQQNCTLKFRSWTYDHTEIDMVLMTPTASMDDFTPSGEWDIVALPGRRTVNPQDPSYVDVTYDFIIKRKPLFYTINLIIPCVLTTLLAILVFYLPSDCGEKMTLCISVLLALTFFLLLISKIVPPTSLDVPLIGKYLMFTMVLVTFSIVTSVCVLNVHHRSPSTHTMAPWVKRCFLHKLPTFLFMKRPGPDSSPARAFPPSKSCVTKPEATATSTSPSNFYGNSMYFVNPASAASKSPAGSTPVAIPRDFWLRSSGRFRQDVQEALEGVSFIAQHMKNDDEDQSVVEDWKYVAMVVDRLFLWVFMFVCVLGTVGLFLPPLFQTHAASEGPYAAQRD
T1 sequence (P30532 23-468 partner): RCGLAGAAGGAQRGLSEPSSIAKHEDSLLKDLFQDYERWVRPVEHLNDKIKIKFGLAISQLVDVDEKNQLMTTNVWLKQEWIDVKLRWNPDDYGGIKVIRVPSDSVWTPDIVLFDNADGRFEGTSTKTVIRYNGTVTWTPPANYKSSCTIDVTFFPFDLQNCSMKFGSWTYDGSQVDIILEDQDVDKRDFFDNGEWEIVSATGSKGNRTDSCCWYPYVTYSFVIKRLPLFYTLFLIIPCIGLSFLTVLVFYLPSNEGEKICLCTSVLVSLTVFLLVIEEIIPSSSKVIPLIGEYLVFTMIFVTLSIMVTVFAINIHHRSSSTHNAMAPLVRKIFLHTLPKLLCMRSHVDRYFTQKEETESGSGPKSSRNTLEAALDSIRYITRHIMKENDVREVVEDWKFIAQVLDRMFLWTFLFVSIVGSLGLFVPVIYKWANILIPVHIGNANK
α6α4β2β3 nAChR (Homo sapiens, UniProt P17787+P43681+Q15825, P452S), sequence (P43681 27-627 P452S): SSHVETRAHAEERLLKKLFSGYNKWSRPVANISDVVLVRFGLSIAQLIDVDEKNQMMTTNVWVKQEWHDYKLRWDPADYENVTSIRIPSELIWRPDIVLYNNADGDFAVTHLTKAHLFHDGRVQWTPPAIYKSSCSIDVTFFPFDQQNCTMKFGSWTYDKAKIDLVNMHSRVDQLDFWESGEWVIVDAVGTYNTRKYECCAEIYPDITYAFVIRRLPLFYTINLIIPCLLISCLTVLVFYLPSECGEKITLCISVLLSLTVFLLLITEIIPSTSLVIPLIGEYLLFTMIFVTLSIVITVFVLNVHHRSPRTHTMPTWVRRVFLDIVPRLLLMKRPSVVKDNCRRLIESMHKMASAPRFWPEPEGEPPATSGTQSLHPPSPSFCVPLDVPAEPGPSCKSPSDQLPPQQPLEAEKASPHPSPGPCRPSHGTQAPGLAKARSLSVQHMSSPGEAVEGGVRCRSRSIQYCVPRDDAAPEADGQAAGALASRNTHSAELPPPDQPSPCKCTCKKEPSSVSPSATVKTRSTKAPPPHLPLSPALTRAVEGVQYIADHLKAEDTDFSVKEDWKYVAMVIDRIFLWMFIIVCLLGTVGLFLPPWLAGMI
α6α4β2β3 nAChR (Homo sapiens, UniProt P17787+P43681+Q15825, P452S), sequence (Q15825 26-494): as the sequence (Q15825 26-494) above
α6α4β2β3 nAChR (Homo sapiens, UniProt P17787+P43681+Q15825, P452S), sequence (P17787 26-502): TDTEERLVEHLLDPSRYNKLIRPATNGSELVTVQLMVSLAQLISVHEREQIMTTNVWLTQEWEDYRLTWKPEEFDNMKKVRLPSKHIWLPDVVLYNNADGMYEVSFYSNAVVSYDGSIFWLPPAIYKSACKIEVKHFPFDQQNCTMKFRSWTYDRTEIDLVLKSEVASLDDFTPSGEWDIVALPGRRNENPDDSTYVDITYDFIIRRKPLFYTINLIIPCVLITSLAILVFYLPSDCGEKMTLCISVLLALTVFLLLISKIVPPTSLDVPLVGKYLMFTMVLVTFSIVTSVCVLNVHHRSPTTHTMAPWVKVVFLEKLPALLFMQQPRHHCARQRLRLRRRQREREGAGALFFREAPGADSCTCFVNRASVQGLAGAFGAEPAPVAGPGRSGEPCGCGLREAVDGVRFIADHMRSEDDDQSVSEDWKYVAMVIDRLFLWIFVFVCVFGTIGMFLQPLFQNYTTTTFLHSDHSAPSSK
α6α4β2β3 nAChR (Homo sapiens, UniProt P17787+P43681+Q15825, P452S), sequence (Q05901 22-458, further chain): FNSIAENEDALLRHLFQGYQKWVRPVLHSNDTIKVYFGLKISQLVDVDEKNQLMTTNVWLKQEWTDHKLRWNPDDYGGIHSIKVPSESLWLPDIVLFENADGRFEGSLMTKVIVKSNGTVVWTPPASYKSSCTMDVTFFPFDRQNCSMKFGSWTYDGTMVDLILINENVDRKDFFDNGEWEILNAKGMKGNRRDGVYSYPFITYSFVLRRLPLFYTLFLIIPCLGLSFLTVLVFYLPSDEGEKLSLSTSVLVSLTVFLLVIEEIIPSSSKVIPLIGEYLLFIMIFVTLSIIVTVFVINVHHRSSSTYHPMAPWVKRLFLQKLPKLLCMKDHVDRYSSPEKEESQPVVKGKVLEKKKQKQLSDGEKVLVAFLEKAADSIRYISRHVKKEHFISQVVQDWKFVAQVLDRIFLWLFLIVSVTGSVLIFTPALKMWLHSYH

Usually Ki stands for the equilibrium dissociation constant of an inhibitor or competing ligand from its target. Take `c1cncc(C2CC3CCN2CC3)c1` (racemic) [TC-2429, (+/−)-2-(−3-pyridinyl)-1-azabicyclo[2.2.2]octane]: the inhibition constant (Ki) in assay [1] (setting [10]) amounted to 2 nM. In [2], the DA release entry is reported as “robust DA release”.
As to `CN1CCCC1c1cccnc1` (single isomer, unassigned; (-)) [(-)-NIC, nicotine], the inhibition constant (Ki) was 150 to 165 nM and 110 to 160 nM in [1] (setting [11]); 160 nM in assay [1] (Ki α6β3β4α5 [3H]-EPI Binding).
Turning to `O=c1cccc2n1C[C@@H]1CNC[C@H]2C1` [(-)-CYT, cytisine], the results for the Ki in assay [1] (setting [12]), in assay [3] (setting [13]) and in assay [5] were 150 nM, 1 nM and 1160 nM, respectively. In [4], the “Agonist efficacy/potency at α6α4β2β3 nAChR relative to α4β2-nAChR” value is “higher efficacy and agonist potency; also recorded: much greater efficacy”.
With `CN1[C@@H](CC(=O)c2ccccc2)CCC[C@H]1C[C@H](O)c1ccccc1` [(-)-LOB, lobeline], the Ki in assay [1] (setting [14]) was 7 nM; in [1] (setting [10]) it was 7 to 9 nM and 6 nM.
For the compound `c1cncc(OC[C@@H]2CCN2)c1` [A-85380, 3-[2(S)-azetidinylmethoxy]pyridine], the Ki was 7 to 9 nM and 6 nM in assay [1] (setting [11]); 9 nM in assay [1] (setting [14]); 3 nM in [3]; 1200 nM in assay [5] (Rat brain, Table 1).
Turning to `Cc1cc([C@@H]2CCCN2C)on1` [ABT-418, (S)-3-methyl-5-(1-methyl-2-pyrrolidinyl)isoxazole], the Ki was 900 to 3500 nM and 500 to 2000 nM in [1] (setting [11]); 850 nM in [1] (setting [14]); 39 nM in assay [3] (Rat brain, Table 1, read-out: Ki α4β2 [3H]-NIC Binding).
Turning to `C[N+](C)(C)CCOC(N)=O` [CAR, carbachol], the inhibitory constant (Ki) in assay [1] (setting [14]) is 3500 nM; in assay [1] (setting [10]), 900 to 3500 nM and 500 to 2000 nM. The “86Rb+ efflux response (agonist)” value in [6] was “activate ^86Rb^+ efflux responses”.
On to `CO[C@H]1CC=C2CCN3CCC4=C(CC(=O)OC4)[C@]23C1` [DHβE, dihydro-β-erythoidine], for which the Ki in assay [1] (setting [12]) is greater than 10000 nM; in assay [3] (setting [13]) it was 26.4 nM; in [5], 5000 nM.
For `Clc1ccc(C2CC3CCC2N3)cn1` (stereo not drawn) [EPI, epibatidine], the affinity in assay [1] (Ki α6β3β4α5 [3H]-EPI Binding) corresponds to a Ki of 0.07 nM.
On to `COc1ccc(/C=C2\CCCN=C2c2cccnc2)c(OC)c1` [GTS-21, (2.4)-dimethoxybenzylidene anabaseine], for which the inhibition constant Ki in assay [1] (setting [11]) was 900 to 3500 nM and 500 to 2000 nM; in [1] (setting [14]), 1400 nM; in [7], 20 nM; in assay [8], 2000 nM.
In the case of `CNC(=O)OCC[N+](C)(C)C` [MCC, methylcarbamylcholine], the inhibition constant Ki in [1] (setting [14]) worked out at 970 nM.
For the compound `CCN1C[C@]2(COC(=O)c3ccccc3N3C(=O)C[C@H](C)C3=O)CC[C@H](OC)[C@@]34[C@@H]5C[C@H]6[C@H](OC)[C@@H]5[C@](O)(C[C@@H]6OC)[C@@](O)([C@@H](OC)[C@H]23)[C@@H]14` [MLA, methyllycaconitine], the Ki in assay [1] (setting [14]) is 160 nM; in assay [1] (setting [10]), 150 to 165 nM and 110 to 160 nM.
With `CCN1C[C@]2(COC(=O)c3ccccc3N3C(=O)C[C@H](C)C3=O)CC[C@H](OC)[C@]34C5C[C@@H]6[C@@H](OC)C[C@@](O)(C5[C@H]6OC(C)=O)[C@](O)(C13)[C@@H](OC)C24` (stereo partly drawn) [NUD, nudikauline], the Ki in assay [1] (setting [14]) was 370 nM.
For `C#Cc1cncc([C@@H]2CCCN2C)c1` [SIB-1508Y, altinicline], the Ki in assay [1] (setting [11]) is 900 to 3500 nM and 500 to 2000 nM; in assay [1] (setting [14]), 950 nM; in assay [3] it was 200 nM.
On to `CNC1(C)C2CCC(C2)C1(C)C` (stereo not drawn) [mecamylamine], for which the Ki in assay [1] (read-out: Ki in competition with [3H]-EPI (rank order of potency)) was greater than 10000 nM.
In the case of `CC(=O)O[C@H]1C[C@@H]2CC[C@@H]3[C@H](CC[C@@]4(C)[C@H]3C[C@H]([N+]3(C)CCCCC3)[C@@H]4OC(C)=O)[C@@]2(C)C[C@@H]1[N+]1(C)CCCCC1` [pancuronium], in [9], the “Sensitivity of α6α4β2β3-nAChR to functional blockade relative to α4β2-nAChR” value is listed as “lower sensitivity”.
As to α-bungarotoxin [α-Btx], the Ki in assay [1] (setting [12]) and in assay [3] (setting [13]) was greater than 10000 nM throughout.
